Experimental findings from US8557847B2, “Synergistic modulation of FLT3 kinase using a FLT3 inhibitor and a farnesyl transferase inhibitor” (Janssen Pharmaceutica, N.V., priority 2005, dated 2013) are described below.

Test [1] concerns the target T1, isolated kinase domain of the human FLT3 receptor (a.a. 571-993) (Homo sapiens, UniProt P36888).
T1 construct: human FLT3 receptor (a.a. 571-993)
T1 sequence (P36888 571-993): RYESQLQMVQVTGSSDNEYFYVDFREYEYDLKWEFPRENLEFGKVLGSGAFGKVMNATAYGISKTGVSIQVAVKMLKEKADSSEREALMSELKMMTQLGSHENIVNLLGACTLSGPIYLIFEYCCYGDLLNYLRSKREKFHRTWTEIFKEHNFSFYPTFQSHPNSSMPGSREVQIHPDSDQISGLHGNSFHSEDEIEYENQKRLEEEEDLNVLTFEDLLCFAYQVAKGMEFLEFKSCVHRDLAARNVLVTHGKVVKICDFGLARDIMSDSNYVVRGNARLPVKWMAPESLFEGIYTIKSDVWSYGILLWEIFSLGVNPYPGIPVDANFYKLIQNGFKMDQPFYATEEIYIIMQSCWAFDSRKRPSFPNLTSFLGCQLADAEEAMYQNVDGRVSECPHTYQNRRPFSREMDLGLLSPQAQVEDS
Description: FLT3 fluorescence polarization kinase assay. It is filed as biochemical. Particulars: 150 uM ATP; uncertainty ±10%; read-out: Flt-3 IC50. The source says: The FLT3 FP assay utilizes the fluorescein-labeled phosphopeptide and the anti-phosphotyrosine antibody included in the Panvera Phospho-Tyrosine Kinase Kit (Green) supplied by Invitrogen. When FLT3 phosphorylates polyGlu4Tyr, the fluorescein-labeled phosphopeptide is displaced from the anti-phosphotyrosine antibody by the phosphorylated poly Glu4Tyr, thus decreasing the FP value. […] The kinase reaction is stopped with the addition of EDTA. The fluorescein-labeled phosphopeptide and the anti-phosphotyrosine antibody are added and incubated for 30 minutes at room temperature.
Data points are an average of triplicate samples. Inhibition and IC50 data analysis was done with GraphPad Prism using a non-linear regression fit with a multiparamater, sigmoidal dose-response (variable slope) equation.
Background: Fluorescence polarisation rises when a labelled molecule tumbles more slowly, as on binding a larger partner.

In test [2] the target is T2, wild-type FLT3 phosphorylation in Baf3 FLT3 cells (Homo sapiens, UniProt P36888).
T2 construct: host or cells: Baf3 (murine B cell lymphoma line)
T2 sequence (P36888 27-993): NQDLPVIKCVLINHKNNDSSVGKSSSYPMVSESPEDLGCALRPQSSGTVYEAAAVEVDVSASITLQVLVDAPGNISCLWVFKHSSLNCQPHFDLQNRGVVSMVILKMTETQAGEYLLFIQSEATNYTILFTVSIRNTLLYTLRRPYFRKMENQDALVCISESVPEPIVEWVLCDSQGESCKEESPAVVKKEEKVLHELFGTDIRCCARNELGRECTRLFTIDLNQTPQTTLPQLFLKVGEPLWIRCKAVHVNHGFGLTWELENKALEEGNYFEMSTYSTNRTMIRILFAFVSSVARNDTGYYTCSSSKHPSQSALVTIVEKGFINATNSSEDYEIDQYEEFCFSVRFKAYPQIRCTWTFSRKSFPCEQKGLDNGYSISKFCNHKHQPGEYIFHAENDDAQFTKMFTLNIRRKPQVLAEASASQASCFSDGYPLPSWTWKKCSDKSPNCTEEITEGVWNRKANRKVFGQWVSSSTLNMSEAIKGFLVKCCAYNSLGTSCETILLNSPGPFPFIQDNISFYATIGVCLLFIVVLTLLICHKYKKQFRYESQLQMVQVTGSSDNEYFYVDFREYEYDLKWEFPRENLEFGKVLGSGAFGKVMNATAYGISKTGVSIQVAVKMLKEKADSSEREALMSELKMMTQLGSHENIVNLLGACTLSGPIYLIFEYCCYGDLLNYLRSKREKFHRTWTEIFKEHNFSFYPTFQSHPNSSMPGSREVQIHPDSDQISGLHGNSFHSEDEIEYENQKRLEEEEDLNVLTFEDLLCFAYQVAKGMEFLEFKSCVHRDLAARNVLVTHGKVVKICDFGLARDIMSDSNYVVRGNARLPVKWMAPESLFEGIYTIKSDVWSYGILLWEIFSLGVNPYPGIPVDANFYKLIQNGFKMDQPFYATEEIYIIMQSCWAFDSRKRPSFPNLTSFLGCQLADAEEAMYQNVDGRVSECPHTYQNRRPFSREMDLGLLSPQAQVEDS
Description: Cell-based FLT3 receptor ELISA. The conditions noted are these: uncertainty ±20%. The source says: Data points are an average of triplicate samples. […] Leukemia.

The subject of a further test is MV4-11 cells. The experiment in a line: Inhibition of MV4-11 cell proliferation (CellTiterGlo). Type of test: cell-based. The conditions noted are these: Homo sapiens, 72 hours growth, uncertainty ±20%. How it is done: To assess the cellular potency of compounds of the present invention, FLT3 specific growth inhibition was measured in the leukemic cell line MV4-11 (ATCC Number: CRL-9591). […] MV4-11 cells cannot grow and survive without active FLT3ITD.
To measure proliferation inhibition by compounds of the present invention, the luciferase based CellTiterGlo reagent (Promega), which quantifies total cell number based on total cellular ATP concentration, was used. Cells are plated at 10,000 cells per well in 100 ul of in RPMI media containing penn/strep, 10% FBS and 1 ng/ml GM-CSF or 1 ng/ml IL-3 for MV4-11 and Baf3 cells respectively.
Compound dilutions or 0.1% DMSO (vehicle control) are added to cells and the cells are allowed to grow for 72 hours at standard cell growth conditions (37° C., 5% CO2). For activity measurements in MV4-11 cells grown in 50% plasma, cells were plated at 10,000 cells per well in a 1:1 mixture of growth media and human plasma (final volume of 100 μL). To measure total cell growth an equal volume of CellTiterGlo reagent was added to each well, according to the manufacturer's instructions, and luminescence was quantified. Total cell growth was quantified as the difference in luminescent counts (relative light units, RLU) of cell number at Day 0 compared to total cell number at Day 3 (72 hours of growth and/or compound treatment). One hundred percent inhibition of growth is defined as an RLU equivalent to the Day 0 reading. Zero percent inhibition was defined as the RLU signal for the DMSO vehicle control at Day 3 of growth.
Data points are an average of triplicate samples. […] Inhibition and IC50 data analysis was done with GraphPad Prism using a non-linear regression fit with a multiparamater, sigmoidal dose-response (variable slope) equation. MV4-11 cells express the FLT3 internal tandem duplication mutation, and thus are entirely dependent upon FLT3 activity for growth. […] In contrast, the Baf3 cell proliferation is driven by the cytokine IL-3 and thus is used as a non-specific toxicity control.
For orientation: In ATP-based viability assays light output follows the ATP content of the culture.

The structures appear in SMILES notation. Structures can show the parent of a compound that is named as a salt.

The IC50 is the concentration at which inhibition is half-maximal. With `N#Cc1c[nH]c(C(=O)Nc2ccc(C3CCN(C(CO)CO)CC3)cc2C2=CCCCC2)n1` [Compound 6, 4-Cyano-1H-imidazole-2-carboxylic acid {2-cyclohex-1-enyl-4-[1-(2-hydroxy-1-hydroxymethyl-ethyl)-piperidin-4-yl]-phenyl}-amide trifluoroacetic acid salt], the IC50 in test [1] is 82 nM.
Same read-out and setting: the same measure for `Cc1ccccc1-c1cc(N2CCN(C)CC2)ccc1NC(=O)c1ccc(C#N)o1` [Compound 9, 5-Cyano-furan-2-carboxylic acid [2′-methyl-5-(4-methyl-piperazin-1-yl)-biphenyl-2-yl]-amide]: 97 nM.
Turning to `CN1CCN(c2ccc(NC(=O)c3ccc(C#N)o3)c(C3=CCCCC3)c2)CC1` [Compound 11, 5-Cyano-furan-2-carboxylic acid [2-cyclohex-1-enyl-4-(4-methyl-piperazin-1-yl)-phenyl]-amide], the 50% inhibitory concentration (IC50) in test [2] came to 1300 nM; in test [1], 260 nM.
Turning to `CN1CCN(c2ccc(NC(=O)c3ccc(C#N)o3)c(C3=CCOCC3)c2)CC1` [Compound 12], in test [1], the IC50 came to 1240 nM.
On to `N#Cc1c[nH]c(C(=O)Nc2ccc(C3CCNCC3)cc2C2=CCCCC2)c1` [Compound 13, 4-Cyano-1H-pyrrole-2-carboxylic acid (2-cyclohex-1-enyl-4-piperidin-4-yl-phenyl)-amide trifluoroacetic acid salt], for which the IC50 in test [1] came to 34 nM.
The same measure, in the same setting: for `CC(=O)N1CCC(c2ccc(NC(=O)c3nc(C#N)c[nH]3)c(C3=CCCCC3)c2)CC1` [Compound 16, 4-Cyano-1H-imidazole-2-carboxylic acid [4-(1-acetyl-piperidin-4-yl)-2-cyclohex-1-enyl-phenyl]-amide] the value was 39 nM; for `CC1CC=C(c2cc(C3CCNCC3)ccc2NC(=O)c2nc(C#N)c[nH]2)CC1` (centres unmarked) [Compound 17, 4-Cyano-1H-imidazole-2-carboxylic acid [2-(4-methyl-cyclohex-1-enyl)-4-piperidin-4-yl-phenyl]-amide trifluoroacetic acid salt], 13 nM; for `CS(=O)(=O)CC(=O)N1CCC(c2ccc(NC(=O)c3nc(C#N)c[nH]3)c(C3=CCCCC3)c2)CC1` [Compound 20, 4-Cyano-1H-imidazole-2-carboxylic acid {2-cyclohex-1-enyl-4-[1-(2-methanesulfonyl-acetyl)-piperidin-4-yl]-phenyl}-amide], 130 nM.
Same read-out and setting: for `Cn1ccnc1CN1CCC(c2ccc(NC(=O)c3nc(C#N)c[nH]3)c(C3=CCCC3)c2)CC1` [Compound 23, 4-Cyano-1H-imidazole-2-carboxylic acid {2-cyclopent-1-enyl-4-[1-(1-methyl-1H-imidazol-2-ylmethyl)-piperidin-4-yl]-phenyl}-amide trifluoroacetic acid salt] the value was 16 nM; for `N#Cc1c[nH]c(C(=O)Nc2ccc(C3CCN(C(N)=O)CC3)cc2C2=CCCCC2)n1` [Compound 24, 4-{4-[(4-Cyano-1H-imidazole-2-carbonyl)-amino]-3-cyclohex-1-enyl-phenyl}-piperidine-1-carboxylic acid amide], 370 nM; for `N#Cc1c[nH]c(C(=O)Nc2ccc(C3CCN(CCO)CC3)cc2C2=CCCCC2)n1` [Compound 26, 4-Cyano-1H-imidazole-2-carboxylic acid {2-cyclohex-1-enyl-4-[1-(2-hydroxy-ethyl)-piperidin-4-yl]-phenyl}-amide trifluoroacetic acid salt], 53 nM.
Compound `N#Cc1c[nH]c(C(=O)Nc2ccc(C3CCN(CCN4CCOCC4)CC3)cc2C2=CCCCC2)n1` [Compound 34, 4-Cyano-1H-imidazole-2-carboxylic acid {2-cyclohex-1-enyl-4-[1-(2-morpholin-4-yl-ethyl)-piperidin-4-yl]-phenyl}-amide di-trifluoroacetic acid salt] yielded an IC50 with MV4-11 cells of 8 nM.
`N#Cc1c[nH]c(C(=O)Nc2ccc(C3CCS(=O)(=O)CC3)cc2C2=CCCCC2)n1` [Compound 35, 4-Cyano-1H-imidazole-2-carboxylic acid [2-cyclohex-1-enyl-4-(1,1-dioxo-hexahydro-1λ^6-thiopyran-4-yl)-phenyl]-amide]: the IC50 in test [1] worked out at 120 nM.
Take `N#Cc1c[nH]c(C(=O)Nc2ccc(C3CCNCC3)cc2C2=CCS(=O)(=O)CC2)n1` [Compound 36, 4-Cyano-1H-imidazole-2-carboxylic acid [2-(1,1-dioxo-1,2,3,6-tetrahydro-1λ6-thiopyran-4-yl)-4-piperidin-4-yl-phenyl]-amide trifluoroacetic acid salt]: the concentration for half-maximal inhibition (IC50) in the test on MV4-11 cells worked out at 192 nM; in test [1], 9100 nM.
As to `CS(=O)(=O)CCN1CCC(c2ccc(NC(=O)c3nc(C#N)c[nH]3)c(C3=CCCCC3)c2)CC1` [Compound 40, 4-Cyano-1H-imidazole-2-carboxylic acid {2-cyclohex-1-enyl-4-[1-(2-methanesulfonyl-ethyl)-piperidin-4-yl]-phenyl}-amide], the IC50 in the test with MV4-11 cells stood at 116 nM.
For the compound `CC(=O)N1CCC(c2ccc(NC(=O)c3nc(C#N)c[nH]3)c(C3=CCCNC3)c2)CC1` [Compound 46, 4-Cyano-1H-imidazole-2-carboxylic acid [4-(1-acetyl-piperidin-4-yl)-2-(1,2,5,6-tetrahydro-pyridin-3-yl)-phenyl]-amide trifluoroacetic acid salt], in test [1], the IC50 turned out to be 39 nM.
Still for that read-out and setting: for `C[C@@H]1CC(c2ccc(NC(=O)c3ncc(C#N)[nH]3)c(C3=CCCCC3)c2)C[C@H](C)N1` (stereo partly drawn) [Compound 51a, 5-Cyano-1H-imidazole-2-carboxylic acid [2-cyclohex-1-enyl-4-(cis-2,6-dimethyl-piperidin-4-yl)-phenyl]-amide bis trifluoroacetic acid salt] the value was 2.3 nM; for `CC1(C)CC=C(c2nc(C3CCN(CCS(C)(=O)=O)CC3)ccc2NC(=O)c2nc(C#N)c[nH]2)CC1` [Compound 56, 4-Cyano-1H-imidazole-2-carboxylic acid [6-(4,4-dimethyl-cyclohex-1-enyl)-1′-(2-methanesulfonyl-ethyl)-1′,2′,3′,4′,5′,6′-hexhydro-[2,4]bipyridinyl-5-yl]-amide trifluoroacetic acid salt], 140 nM.
